US20160311791A1, “NOVEL TRICYCLIC CALCIUM SENSING RECEPTOR ANTOGONISTS FOR THE TREATMENT OF OSTEOPOSOSIS” (MERCK SHARP & DOHME CORP., priority 2013, published 2016)

How the values were obtained:
[1] = target: T1, calcium sensing receptor (Homo sapiens, UniProt P41180); test: Calcium sensing receptor antagonist activity (test not specified)
T1 sequence (P41180 20-1078): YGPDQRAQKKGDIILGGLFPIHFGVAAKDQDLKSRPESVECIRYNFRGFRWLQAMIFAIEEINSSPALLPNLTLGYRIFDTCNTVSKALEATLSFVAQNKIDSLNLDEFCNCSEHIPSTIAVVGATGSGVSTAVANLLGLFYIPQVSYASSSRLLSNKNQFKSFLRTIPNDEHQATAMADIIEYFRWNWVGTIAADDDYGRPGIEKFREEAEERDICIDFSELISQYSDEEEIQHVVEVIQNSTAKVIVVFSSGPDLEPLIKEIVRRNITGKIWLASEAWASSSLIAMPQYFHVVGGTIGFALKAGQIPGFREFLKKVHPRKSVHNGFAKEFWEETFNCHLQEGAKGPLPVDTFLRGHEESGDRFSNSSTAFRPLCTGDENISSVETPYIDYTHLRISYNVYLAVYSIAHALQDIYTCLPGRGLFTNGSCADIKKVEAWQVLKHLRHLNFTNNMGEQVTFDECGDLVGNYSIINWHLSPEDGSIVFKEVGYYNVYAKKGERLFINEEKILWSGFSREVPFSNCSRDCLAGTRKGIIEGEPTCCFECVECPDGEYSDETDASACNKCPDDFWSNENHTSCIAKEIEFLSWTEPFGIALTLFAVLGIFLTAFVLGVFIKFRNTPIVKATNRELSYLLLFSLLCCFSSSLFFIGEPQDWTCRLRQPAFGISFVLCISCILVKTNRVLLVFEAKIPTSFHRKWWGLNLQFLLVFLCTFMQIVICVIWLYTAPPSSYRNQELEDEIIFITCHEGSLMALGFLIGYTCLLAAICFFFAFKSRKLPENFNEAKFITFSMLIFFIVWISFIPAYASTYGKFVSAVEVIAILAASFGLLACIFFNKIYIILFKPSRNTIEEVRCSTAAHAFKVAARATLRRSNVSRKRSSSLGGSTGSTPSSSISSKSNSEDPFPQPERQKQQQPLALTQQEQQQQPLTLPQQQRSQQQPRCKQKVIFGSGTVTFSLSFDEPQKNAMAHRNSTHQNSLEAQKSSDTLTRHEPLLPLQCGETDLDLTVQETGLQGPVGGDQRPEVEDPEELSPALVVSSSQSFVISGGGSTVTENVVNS

[2] = target: T2, human CaSR (Homo sapiens, UniProt P41180); test: CaSR binding assay (radioligand, HEK293 membranes); parameters: expressed in transfected cells; host or cells: HEK293 cell membranes; conditions: radio-labeled compound used as ligand; read-out: apparent Kd
T2 sequence (P41180 20-1078): T1 sequence (P41180 20-1078)
Procedure: Procedures for CaSR Binding Assay
Membrane preparations from HEK293 cells expressing the human CaSR were generated. The cells were cultured and then washed twice with 1×PBS. The cells were dissociated by adding 4 ml pre-warmed 0.25% Trypsin-EDTA, and by incubating the flask at RT for 3 minutes. 10 ml media was dispensed over the cell layer surface, and the cells were harvested into a centrifuge tube. The cells were centrifuged at 200×g for 10 minutes. The cell pellet was suspended in 30 ml of membrane preparation buffer and then homogenized on ice twice at 16000 rpm for 10 seconds. Following homogenization, the membrane was collected by centrifuge at 40000×g for 30 minutes at 4° C., washed twice with 30 ml membrane preparation buffer, and centrifuged again at 40000×g for 10 minutes. The membrane pellet was suspended in 30 ml membrane preparation buffer (50 mM Tris, pH7.0, 10 mM MgCl, Proteinase inhibitor (Roche, REF 04693116001), and then homogenized on ice once at 16000 rpm for 10 seconds. The total protein concentration was measured using a BCA kit. The membrane protein concentration was adjusted to 2.4 mg/ml and then diluted with binding buffer (10 mM HEPES, pH7.4, 130 mM NaCl, 0.4 mM CaCl2, 5 mM MgCl2, 1 mM EGTA, 10 mM glucose, 0.1% BSA) to 0.33 μg/μl. The final amount in the binding assay was 20 μg/well. Test compound was serially diluted manually by using BIOHIT multi-channel pipettor in 100% DMSO (10 point, 3-fold dilution of each compound from 5.0 μM in 100% DMSO). 4 μl of serially diluted compound was manually transferred into a second assay microplate that contained 196 μl of binding assay buffer to create the intermediate dilution plate. For background, 20 μl of assay buffer was added to each control well. […] The binding reaction used a 100 μl reaction volume consisting of 10 μl of test compound, 30 μl of diluted radio-labelled compound, and 60 μl of membrane solution (0.33 μg/μl). The reaction mixture was incubated at room temperature for one hour. The Grade GF/C filter plates were presoaked in 0.3% PEI (protect from light) for 60 minutes at room temperature. The plate was then washed three times with ice-cold wash buffer (25 mM Tris-HCl, PH7.4, 130 mM NaCl, 5 mM MgCl2, 0.4 mM CaCl2, 0.1% BSA) prior to filtration of the binding samples. The binding reaction was terminated by rapid filtration of 100 μl binding mixture through the GF/C plate. Plates were then washed 6 times with ice-cold wash buffer. Filter plates were dried with a hair dryer for 20 minutes. 60 μl/well MICROSCINT 20 (a cocktail for microplates) was added to the bottom of sealed filters, then the filters were sealed at the top with tape. Bound radioactivity was counted in a TOPCOUNT scintillation counter. Exemplary compounds bind in the 1-500 nM range.

- Kd [2]: 400 nM
Compound: CC(C)(CC1Cc2ccccc2C1)NC[C@@H](O)COc1cc(-c2ccc(C(=O)O)cc2)ccc1F [Example 25, (R)-3′-(3-((1-(2,3-dihydro-1H-inden-2-yl)-2-methylpropan-2-yl)amino)-2-hydroxypropoxy)-4′-fluoro-[1,1′-biphenyl]-4-carboxylic acid]
- calcium sensing receptor antagonist activity [1]: shows calcium sensing receptor antagonist activity
